Results on six molecules are retold here after patent US11548875B2, “Inhibitor compounds for male contraception” (University of Washington, priority 2018, dated 2023).

Data set [1] deals with T1, ALDH1A2 (Homo sapiens, UniProt O94788).
T1 sequence (O94788 1-518): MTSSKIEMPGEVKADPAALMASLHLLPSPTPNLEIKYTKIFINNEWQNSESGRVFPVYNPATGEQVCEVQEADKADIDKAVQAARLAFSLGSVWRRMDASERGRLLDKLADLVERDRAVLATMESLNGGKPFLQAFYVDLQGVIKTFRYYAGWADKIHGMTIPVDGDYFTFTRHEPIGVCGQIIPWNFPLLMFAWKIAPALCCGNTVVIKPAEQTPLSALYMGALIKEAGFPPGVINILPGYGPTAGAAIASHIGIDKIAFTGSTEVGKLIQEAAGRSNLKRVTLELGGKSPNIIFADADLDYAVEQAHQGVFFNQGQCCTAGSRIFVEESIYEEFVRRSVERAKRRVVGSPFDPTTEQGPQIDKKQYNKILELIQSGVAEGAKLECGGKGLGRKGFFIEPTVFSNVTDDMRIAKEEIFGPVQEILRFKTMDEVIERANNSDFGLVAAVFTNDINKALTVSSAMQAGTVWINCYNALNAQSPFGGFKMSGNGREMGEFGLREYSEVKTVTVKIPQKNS
The data set is described as follows: Cell-based enzyme assay, retinoic acid production in ALDH1A2/H1299 cells. The method, boiled down:
(§1)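 ALDH1A1- or ALDH1A2-stably transfected H1299 cells grown to confluence, then treated 20 h in serum-free RPMI-1640 with 2 μM all-trans-retinal plus varying inhibitor concentrations at 37 °C. Retinoic acid in cells and media quantified; inhibition from RA levels with vs without inhibitor.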

Data set [2] deals with T1, ALDH1A2. The data set is described as follows: Inhibitor screening using purified enzymes: ALDH1A2 activity, retinoic acid production by HPLC (5 uM initial screen, then IC50). To be noted: purified enzyme. Details: histidine-tag (C); made in house; host or cells: bacterial expression (pET28 vector, IPTG induction). The format is biochemical. The method, boiled down: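 Purified His-tagged human enzymes in 10 mM HEPES pH 8.0, 150 mM KCl, 2 mM EDTA with 2 mM NAD, all-trans-retinal substrate; retinoic acid quantified by HPLC. ALDH1A2 initial screen: 1 μg enzyme, 5 μM retinal, 5 μM inhibitor, 15 min, 37° C; IC50 runs: 0.5 μg enzyme, 0.5 μg retinal, 5 min, 37° C.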

The target of data set [3] is T2, ALDH1A1 (Homo sapiens, UniProt P00352).
T2 sequence (P00352 1-501): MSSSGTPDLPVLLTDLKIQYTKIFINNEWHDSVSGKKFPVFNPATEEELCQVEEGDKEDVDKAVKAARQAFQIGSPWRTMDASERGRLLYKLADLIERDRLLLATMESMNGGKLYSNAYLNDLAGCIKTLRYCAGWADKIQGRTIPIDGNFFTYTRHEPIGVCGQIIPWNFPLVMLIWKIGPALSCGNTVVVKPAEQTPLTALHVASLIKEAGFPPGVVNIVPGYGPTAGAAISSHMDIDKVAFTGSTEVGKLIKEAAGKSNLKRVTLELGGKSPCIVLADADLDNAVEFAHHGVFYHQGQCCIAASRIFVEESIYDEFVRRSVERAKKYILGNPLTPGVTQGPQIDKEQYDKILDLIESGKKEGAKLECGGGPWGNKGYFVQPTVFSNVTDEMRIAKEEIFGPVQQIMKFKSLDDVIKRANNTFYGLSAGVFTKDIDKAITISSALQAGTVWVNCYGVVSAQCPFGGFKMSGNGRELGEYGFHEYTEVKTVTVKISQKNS
The data set is described as follows: Inhibitor screening using purified enzymes: ALDH1A1 activity, retinoic acid production by HPLC. The format is biochemical. To be noted: purified enzyme. From the text: ALDHs were cloned into bacterial expression vector for in vitro enzyme assays and into mammalian expression vectors for cell-based enzyme assays. Human ALDH1A1 cDNA and human ALDH2 cDNA were purchased from OriGene (SC321535) and Open Biosystems (MHS4771-99611182), respectively. and human ALDH1A2 cDNA was cloned from human testis RNA using RT-PCR (Population Division of the Department of Economic and Social Affairs of the United Nations Secretariat. World Population prospects: the 2008 revision. Available at http://www.un.org/esa/population/ (Retrieved Sep. 30, 2011)). For bacterial expression, an open reading frame of ALDH1A1 and ALDH2 were subcloned into the pETite vector (Lucigen) with a 5′ histidine-tag and that of ALDH1A2 into a pET28 vector (Novagen) with a 3′ histidine-tag. Correct frame and sequences were verified through DNA sequencing (UW DNA sequencing facility). ALDHs were induced with 1 mM IPTG and purified using His.Bind resin (Novagen, San Diego, Calif.) and stored in a buffer containing 20 mM Hepes (pH 8), 150 mM KCl and 1 mM EDTA as previously described (Fierce, Y., de Morais Vieira, M., Piantedosi, R., Wyss, A., Blaner, W. S., and Paik, J. (2008) In vitro and in vivo characterization of retinoid synthesis from beta-carotene. Archives of biochemistry and biophysics 472, 126-138).
ALDH1A1 and ALDH1A2 activity was determined as previously reported (Beedle M T, Stevison F, Zhong G, Topping T, Hogarth C, Isoherranen N, Griswold M D. Sources of All-Trans Retinal Oxidation Independent of the Aldehyde Dehydrogenase 1A Isozymes Exist in the Postnatal Testis. Biol Reprod. 2018 Sep. 21. doi: 10.1093/biolre/ioy200). Briefly, purified enzymes were incubated in a buffer containing 10 mM HEPES buffer (pH 8.0), 150 mM potassium chloride and 2 mM EDTA with 2 mM NAD. Retinoic acid production was determined using HPLC as previously reported (Amory J K, Muller C H, Shimshoni A J, Isoherranen N, Paik J, Moreb J S, Amory D W, Evanoff R, Goldstein A S, Griswold M D. Suppression of spermatogenesis by bisdichloroacetyldiamines is mediated by inhibition of testicular retinoic acid biosynthesis. Journal of Andrology 2011; 32(1):111-119). Inhibitors were diluted in DMSO and added to the reactions. […] For initial screening of inhibitors for ALDH1A2, 1 μg ALDH1A2, 5 μM all-trans-retinal and 5 μM inhibitors were incubated for 15 min at 37° C. […] For this purpose, 0.5 μg ALDH1A2 and […] were incubated for 5 minutes at 37° C. with varying concentrations of inhibitors. To determine specificity toward ALDH1A2, the IC50 for […]

Data set [4] concerns the target T2, ALDH1A1. The data set is described as follows: Cell-based enzyme assay, retinoic acid production in ALDH1A1/H1299 cells. The method, boiled down: as §1
For data set [5], the system named is New Zealand white rabbits. The data set is described as follows: Oral WIN 18,446 in rabbits: ejaculated sperm, testicular retinoic acid, serum testosterone. The format is in vivo, rabbit. An excerpt: In 2011, it was discovered that WIN 18,446 suppresses spermatogenesis by inhibiting testicular retinoic acid biosynthesis.
All animals were azoospermic between week 16 of treatment and week 8 of recovery. Animals underwent a hemi-orchiectomy at the end of treatment, which accounts for the 50% reduction in sperm output at the end of recovery. *p<0.05 compared with baseline.
FIG. 1C compares testicular tissue retinoic acid concentration (pmol/g of tissue) in New Zealand white rabbits treated with 200 mg/kg WIN 18,446 daily, orally over time (N=4/group). […] All values are means±SEM. *p<0.05 compared with placebo, **p<0.01.

Another data set deals with men. To be noted: cited from earlier work.
A further data set relates to mice. To be noted: cited from earlier work.

“Also recorded” adds a separate entry of the source. Read-outs that look alike come from different tables or passages of the source.

In general, EC50 refers to the midpoint of the concentration-response curve. High values mean a need for much substance, low ones an effect from little substance. Usually IC50 stands for the concentration that gives 50% inhibition. The low end stands for inhibition by little substance, the high end for a need for much substance. With `C=C(C(=O)OC)c1ccc(-c2nn(-c3ccc(C#N)cc3)cc2C(=O)Nc2cccc(F)c2)cc1` [Compound 312, Methyl 2-(4-{4-[(3-fluorophenyl)carbamoyl]-1-4-cyanophenyl-1H-pyrazol-3-yl}phenyl)prop-2-enoate], the EC50 at ALDH1A2 [1] (cell-based) turned out to be 12.5 µM; at ALDH1A1 [4] (cell-based), 0.251 µM. In addition, the figures for the IC50 on ALDH1A2 [2] and on ALDH1A1 [3] were 1.2 µM and 3.61 µM, respectively.
Regarding `CC(=O)c1ccc(-c2nn(-c3ccc(C#N)cc3)cc2C(=O)Nc2cccc(F)c2)cc1` [Compound 316, 3-(4-Acetylphenyl)-N-(3-fluorophenyl)-1-(4-cyanophenyl)-1H-pyrazole-4-carboxamide], the EC50 stood at 0.123 µM on ALDH1A2 [1] (cell-based) and 0.28 µM at ALDH1A1 [4] (cell-based). For the same molecule, the IC50 on ALDH1A2 [2] came out at 0.6 µM; against ALDH1A1 [3], 10.2 µM.
`Cn1cccc1C(=O)N1CCN(c2ccc(N)c(N3CCCCCC3)c2)CC1` [Compound 379, {4-[4-Amino-3-(azepan-1-yl)phenyl]piperazin-1-yl}(1-methyl-1H-pyrrol-2-yl)methanone]: the EC50 on ALDH1A2 [1] was found to be 2.58 µM; at ALDH1A1 [4], 0.736 µM. The IC50 at ALDH1A2 [2] was found to be 2.58 µM; at ALDH1A1 [3] it was 0.714 µM.
Turning to `Cn1cccc1C(=O)N1CCN(c2ccc(NC(=O)C(Cl)Cl)c(N3CCCCC3)c2)CC1` [Compound 380, {4-[4-Dichloroacetamido-3-(piperidin-1-yl)phenyl]piperazin-1-yl}(1-methyl-1H-pyrrol-2-yl)methanone], the results for the EC50 on ALDH1A2 [1] and on ALDH1A1 [4] were greater than 5 µM and 0.099 µM, respectively. The IC50 on ALDH1A2 [2] was determined as 8.7 µM; against ALDH1A1 [3], 0.023 µM.
Consider `O=C(NCCCCCCCCNC(=O)C(Cl)Cl)C(Cl)Cl` [WIN 18,446], for which the “testicular tissue retinoic acid concentration” value in data set [5] (200 mg/kg daily, orally over time) was “reduction in intra-testicular retinoic acid”. Moreover, in data set [5] (200 mg/kg orally for 16 weeks, 200 mg/kg), the ejaculated sperm concentrations entry is on record as “reversible azoospermia; also recorded: azoospermic”. The sperm concentration entry in the data set with men (at least sixty men, up to one year) is on record as “below 1 million sperm/ml of ejaculate”. Besides, the “adverse reaction with alcohol” value with men (men, when they drank alcohol) is given as “disulfiram reaction”.
For BMS-189453, in the data set on mice (mice, oral), the fertility entry is reported as “infertile after four weeks of treatment”. The liver toxicity entry with mice (mouse, in vivo) is “hepatic inflammation”. Moreover, in the data set with mice (oral doses as low as 5 mg/kg for seven days), the effect on spermatogenesis result is reported as “potently inhibits spermatogenesis”.
